This is an account of results in ChEMBL document CHEMBL4130341 (Medchemcomm, 2016).

SMILES strings stand for the structures. Active and inactive are the calls of the source. The calls are words filed in the database; no cut-off is given here. A value given as a limit tells only on which side of the number the result lay.

One data set has as its system HK-2. Nature of the data set: Genotoxicity in human HK2 cells assessed as induction of DNA strand breakage at 20 uM after 6 hrs by DAPI staining based alkaline comet assay. Type of data set: toxicity, cell-based. The conditions noted are these: hk-2, 6 h.
Data set [1] addresses T1, Nuclear factor erythroid 2-related factor 2 (Mus musculus) (UniProt Q60795).
T1 sequence (whole entry): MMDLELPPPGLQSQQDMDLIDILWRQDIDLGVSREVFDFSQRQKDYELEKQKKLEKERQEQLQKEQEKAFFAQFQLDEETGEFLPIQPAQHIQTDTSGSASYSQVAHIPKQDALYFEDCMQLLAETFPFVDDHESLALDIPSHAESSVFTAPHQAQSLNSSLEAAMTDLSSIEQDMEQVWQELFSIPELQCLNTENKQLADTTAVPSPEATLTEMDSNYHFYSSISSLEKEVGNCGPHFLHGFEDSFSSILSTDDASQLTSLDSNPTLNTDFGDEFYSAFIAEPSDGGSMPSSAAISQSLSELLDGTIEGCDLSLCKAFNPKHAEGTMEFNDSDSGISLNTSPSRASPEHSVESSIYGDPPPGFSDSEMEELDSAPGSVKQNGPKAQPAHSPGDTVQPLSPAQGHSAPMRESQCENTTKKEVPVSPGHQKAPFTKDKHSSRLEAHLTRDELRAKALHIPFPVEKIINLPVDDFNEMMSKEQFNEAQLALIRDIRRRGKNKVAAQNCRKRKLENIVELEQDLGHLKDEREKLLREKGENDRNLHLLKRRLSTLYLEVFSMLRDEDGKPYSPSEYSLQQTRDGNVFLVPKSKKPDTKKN
As to the kind of experiment: Activation of Nrf2 in wild type mouse Hepa1c1c7 cells cytosolic fraction assessed as induction of quinone reductase activity at 10 uM using 2,6-DCIP as substrate in presence of NADH incubated for 48 hrs measured for 1 min relative to control.

Data set [2] deals with T1, Nuclear factor erythroid 2-related factor 2 (Mus musculus). As to the kind of experiment: Activation of Nrf2 in mutant mouse BpRc1 cells cytosolic fraction assessed as induction of quinone reductase activity at 10 uM using 2,6-DCIP as substrate in presence of NADH incubated for 48 hrs measured for 1 min relative to control. Type of data set: cell-based.
Data set [3] has the same target. Nature of the data set: Ratio of activation of wild type Nrf2 in mouse Hepa1c1c7 cells cytosolic fraction to activation of Nrf2 in mutant mouse BpRc1 cells cytosolic fraction. It counts as cell-based.
Data set [4] is described as follows: Cytotoxicity against wild type mouse Hepa1c1c7 cells after 48 hrs by SRB assay. It counts as functional, cell-based. Conditions: Hepa-1c1c7, 48 h. In general terms: In SRB staining, fixed cells bind dye roughly in proportion to their protein.
The target in data set [5] is T1, Nuclear factor erythroid 2-related factor 2 (Mus musculus). Nature of the data set: Activation of Nrf2 in wild type mouse Hepa1c1c7 cells cytosolic fraction assessed as induction of quinone reductase activity using 2,6-DCIP as substrate in presence of NADH incubated for 48 hrs measured for 1 min.
Data set [6] in a line: Ratio of IC50 for cytotoxicity against wild type mouse Hepa1c1c7 cells to CD for activation of Nrf2 in wild type mouse Hepa1c1c7 cells cytosolic fraction.
Data set [7] can be described thus: Cytotoxicity against mutant mouse BpRc1 cells after 48 hrs by SRB assay. Type of data set: functional, cell-based. The conditions noted are these: BPrc1, 48 h.
In data set [8] the target is T1, Nuclear factor erythroid 2-related factor 2 (Mus musculus). As to the kind of experiment: Activation of Nrf2 in mutant mouse BpRc1 cells cytosolic fraction assessed as induction of quinone reductase activity using 2,6-DCIP as substrate in presence of NADH incubated for 48 hrs measured for 1 min. Type of data set: cell-based.
A short description of data set [9]: Ratio of IC50 for cytotoxicity against mutant mouse BpRc1 cells to CD for activation of Nrf2 in mutant mouse BpRc1 cells cytosolic fraction.
For data set [10], the target named is T1, Nuclear factor erythroid 2-related factor 2 (Mus musculus). As to the kind of experiment: Ratio of CD for activation of Nrf2 in mutant mouse BpRc1 cells cytosolic fraction to CD for activation of Nrf2 in wild type mouse Hepa1c1c7 cells cytosolic fraction. It counts as cell-based.
The next data set relates to MCF7. As to the kind of experiment: Cytotoxicity against human MCF7 cells assessed as cell survival at 100 uM after 24 hrs by SRB assay relative to control. Type of data set: functional. The conditions noted are these: for viability at 100 µM: MCF7, 24 h, read-out: Survival.
The test system of a further data set is HT-29. Nature of the data set: Cytotoxicity against human HT-29 cells assessed as cell survival at 100 uM after 24 hrs by SRB assay relative to control. Type of data set: functional. Conditions: HT-29, 24 h, read-out: Survival.
The test system of the next data set is Salmonella typhimurium. As to the kind of experiment: Mutagenicity in Salmonella typhimurium TA98 in presence of mouse liver S9 fraction by Ames test. It counts as toxicity, organism-based. Conditions: salmonella enterica subsp. enterica serovar typhimurium.
The target in data set [11] is T1, Nuclear factor erythroid 2-related factor 2 (Mus musculus). As to the kind of experiment: Induction of Nrf2 nuclear translocation in mouse Hepa1c1c7 cells at 20 uM after 6 hrs by DAPI/Hoechst 33258 staining-based immunofluorescence method. Type of data set: cell-based.
A further data set deals with TK-10. As to the kind of experiment: Cytotoxicity against human TK10 cells assessed as cell survival after 24 hrs by SRB assay. Type of data set: functional, cell-based. Conditions: TK-10, 24 h.

On to `O=C(/C=C/c1ccc(Br)cc1)c1ccccc1O`, for which the Activity result in the data set on HK-2 is recorded as “Non-Toxic”.
In general, IC50 refers to the point on the concentration scale where inhibition reaches its midpoint. Take `O=C(/C=C/c1ccc2ccccc2c1)c1ccccc1O`: the results for the fold change (FC) in data set [1] and in data set [2] were 2.96 and 1.39, respectively. The Ratio in [3] stood at 2.1; in data set [6], 170; in data set [9] it was 4.2; in [10], 40. Moreover, the IC50 in data set [4] and in data set [7] was 85 µM each time. In addition, the values for the CD in data set [5] and in data set [8] were 0.5 µM and 20 µM, respectively. Further, the viability at 100 µM in the data set with MCF7 and in the data set with HT-29 was less than 50% each time. In addition, the Activity entry in the data set on HK-2 and with Salmonella typhimurium was “Non-Toxic” each time.
Take `O=C(/C=C/c1ccnc2ccccc12)c1ccc2ccccc2c1`: the fold change (FC) in data set [1] is 1.28; in data set [2], 1.25. Besides, the Ratio in [3] turned out to be 1. Moreover, in the data set with MCF7, the result was Active. The Activity result in the data set with Salmonella typhimurium is listed as “Non-Toxic”.
On to `O=C(/C=C/c1ccnc2ccccc12)c1cccc2ccccc12`, for which the fold change (FC) in data set [1] was determined as 1.43; in data set [2], 1.83. In data set [3], the Ratio came out at 0.8. Further, the outcome in the data set with MCF7 was Active. Besides, in the data set on Salmonella typhimurium, the Activity entry is reported as “Non-Toxic”.
Consider `O=C(/C=C/c1cccc2ccccc12)c1c(O)ccc2ccccc12`, for which the fold change (FC) in data set [1] came to 1.29; in data set [2], 0.82. For the same compound, in data set [3], the Ratio was found to be 1.6. In addition, the viability at 100 µM with MCF7 and with HT-29 was less than 50% each time. For the same compound, the Activity result in the data set with HK-2 and in the data set with Salmonella typhimurium was “Non-Toxic” in each case.
Consider `O=C(/C=C/c1ccc2ccccc2c1)c1ccc2ccccc2c1O`, for which the fold change (FC) in [1] is 1.44; in data set [2], 0.97. For the same compound, the Ratio in data set [3] came to 1.5. Further, the result with MCF7 was Active. In addition, the Activity entry in the data set on Salmonella typhimurium is on record as “Non-Toxic”.
Consider `CC(C)(C)c1cc(O)ccc1O` [E319], for which the IC50 amounted to 147 µM in [4] and 60 µM in [7]. The CD in data set [5] amounted to 1 µM; in data set [8], 6 µM. The Ratio worked out at 147 in data set [6], 10 in data set [9] and 6 in data set [10]. Further, the outcome in data set [11] was Active.
With `O=C(CC(CC(=O)c1ccccc1)c1cccc2ccccc12)c1ccccc1`, the values for the fold change (FC) in data set [1] and in [2] were 0.83 and 2.38, respectively. Also, the Ratio in data set [3] amounted to 0.4. Further, the outcome in the data set on MCF7 was Active. The Activity result in the data set with Salmonella typhimurium is “Non-Toxic”.
For the compound `O=C(/C=C/c1cccc2ccccc12)c1ccccc1`, the figures for the fold change (FC) in data set [1] and in [2] were 0.88 and 0.92, respectively. In data set [3], the Ratio was found to be 1. The outcome in the data set on MCF7 was Active. Besides, the Activity entry in the data set with HK-2 and in the data set with Salmonella typhimurium was “Non-Toxic” throughout.
`O=C(/C=C/c1ccccc1)c1ccc2ccccc2c1O`: the fold change (FC) came out at 3.04 in data set [1] and 0.57 in [2].
For `O=C(/C=C/c1ccc2ccccc2c1)c1ccccc1`, the fold change (FC) in data set [1] was 0.95; in data set [2], 1.41. Moreover, the Ratio in [3] was 0.7. For the same compound, the outcome in the data set with MCF7 was Active. For the same compound, the Activity entry with HK-2 and in the data set on Salmonella typhimurium was “Non-Toxic” throughout.
For `O=C(/C=C/c1cccc(Br)n1)c1ccccc1O`, the fold change (FC) in [1] worked out at 1.23; in data set [2] it was 1.18. Besides, the Ratio in data set [3] came out at 1. Further, the viability at 100 µM in the data set on MCF7 and in the data set on HT-29 was less than 50% each time. Moreover, the 50% inhibitory concentration (IC50) in the data set on TK-10 came out at 18 µM. For the same compound, the Activity entry with HK-2 and with Salmonella typhimurium was “Non-Toxic” throughout.
As for `O=C(/C=C/c1cncc(Br)c1)c1ccc2ccccc2c1O`, the fold change (FC) in data set [1] worked out at 2.3; in [2], 1.13. In data set [3], the Ratio came to 2. In addition, the result with MCF7 was Active. The Activity result in the data set on HK-2 and in the data set on Salmonella typhimurium was “Non-Toxic” in each case.
Regarding `O=c1cc(-c2ccc(Br)cc2)oc2ccccc12`, the figures for the fold change (FC) in data set [1] and in data set [2] were 4.45 and 1.49, respectively. The Ratio in [3] was 2.99; in [6], 107; in data set [9] it was 1.9; in [10], 101. Besides, the IC50 is 85 µM in data set [4] and 150 µM in data set [7]. Besides, the CD amounted to 0.79 µM in data set [5] and 80 µM in data set [8].
On to `O=C(/C=C/c1ccc2ccccc2c1)c1c(O)ccc2ccccc12`, for which the fold change (FC) in data set [1] stood at 1.76; in [2], 0.79. Moreover, the Ratio in data set [3] came to 2.2. In addition, the outcome in the data set with MCF7 was Active. In addition, the Activity result in the data set with HK-2 and in the data set on Salmonella typhimurium was “Non-Toxic” in each case.
As to `O=C(/C=C/c1ccnc2ccccc12)c1ccc2ccccc2c1O`, the fold change (FC) in data set [1] was found to be 1.48; in data set [2], 0.85. Also, the outcome in the data set on MCF7 was Active.
On to `O=C(CC(O)c1ccccc1)c1ccc2ccccc2c1` (stereo unspecified), for which the results for the fold change (FC) in [1] and in data set [2] were 5.04 and 1.74, respectively. For the same compound, in data set [3], the Ratio worked out at 2.9. Moreover, in the data set with MCF7, the result was Active. Besides, the Activity entry in the data set with HK-2 and in the data set with Salmonella typhimurium was “Non-Toxic” in each case.
For `O=C(CC(O)c1ccccc1)c1c(O)ccc2ccccc12` (stereo unspecified), the fold change (FC) turned out to be 3.31 in data set [1] and 1.14 in data set [2]. For the same compound, the Ratio in data set [3] amounted to 2.9. In the data set on MCF7, the outcome was Active.
Regarding `O=C(/C=C/c1ccccn1)c1ccccc1O`, the Activity result in the data set on HK-2 was “Non-Toxic”.
On to `O=C(/C=C/c1cncc(Br)c1)c1ccccc1O`, for which the fold change (FC) is 1.51 in data set [1] and 1.03 in data set [2]. In addition, the Ratio in [3] is 1.5. In addition, the result in the data set with MCF7 was Active. Further, the IC50 in the data set on TK-10 came out at 20 µM. The Activity result in the data set with Salmonella typhimurium was “Non-Toxic”.
`O=C(/C=C/c1ccccc1)c1cccc2ccccc12`: the fold change (FC) in data set [1] was 0.98; in data set [2] it was 1.13. In [3], the Ratio turned out to be 0.9. The viability at 100 µM in the data set on MCF7 and in the data set with HT-29 was less than 50% in each case. Further, in the data set with TK-10, the IC50 was determined as 20 µM. In addition, the Activity entry with HK-2 and in the data set with Salmonella typhimurium was “Non-Toxic” throughout.
As to `O=C(/C=C/c1ccnc2ccccc12)c1ccccc1O`, the fold change (FC) in [1] was found to be 5.42; in data set [2] it was 1.34. Besides, the Ratio in data set [3] is 4. Besides, the Activity result in the data set on Salmonella typhimurium is “Non-Toxic”.
